# Results as given in PubChem BioAssay AID1845216 (Molecular Pharmacology Branch, DTP, NCI, 2023).
# Tested on: SW 982 tumor spheroid viability
# Experiment: Anticancer human tumor SW 982 cell line growth inhibition;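 further: spheroids exposed to compound for 7 days before readout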
# Conditions: spheroids with HUVEC and MSC; for IC50: curve of first compound; for viability, T/C: stronger effect = lower value
# Excerpt: Multicellular complex tumor spheroid response to DNA repair inhibitors in combination with DNA-damaging drugs
# This study explores the anticancer activities of DNA-damaging drugs and inhibitors of DNA damage repair, both as single agents and in combinations. Complex tumor spheroids comprised of malignant cells, endothelial cells and mesenchymal stem cells served as an in vitro model for human solid tumors. This model system incorporates physiologically relevant features and patient-derived or established malignant cell lines with clinically relevant genetic alterations from many tumor types. Twenty-six patient-derived or established malignant cell lines were evaluated representing sarcoma, melanoma, small cell lung cancer (SCLC), non-small cell lung cancer (NSCLC), as well as bladder, ovarian and pancreatic cancers. The concentration ranges selected for each drug and investigational agent were based upon clinically achievable concentrations if the clinical Cmax of the agent was known.
# Compounds. The drugs and compounds olaparib (NSC753686), talazoparib (NSC767125), berzosertib (NSC777718), elimusertib (NSC800525), nedisertib (NSC802822), VX-984 (NSC792969), AZD-1390 (NSC803789), temozolomide (NSC362856), topotecan (NSC609699), trabectedin (NSC813783), staurosporine (NSC755774), and gemcitabine (NSC613327) were obtained from the National Cancer Institute (NCI) Developmental Therapeutics Program Chemical Repository. The FDA-approved anticancer drug set is available from the Developmental Therapeutics Program at https://dtp.cancer.gov/organization/dscb/obtaining/available_plates.htm. […] The stock solutions were prepared in dimethyl sulfoxide (DMSO, Sigma-Aldrich, St. Louis, MO, cat. D2650) at 400-fold the tested concentration and stored at -70 degrees C. Prior to their use, the stock solutions were diluted in fresh medium and the final DMSO concentration in the assay was 0.25% (v/v). All drugs and investigational agents were tested over a range starting from a high concentration at or near the clinical Cmax and decreasing in half-log increments. If the clinical Cmax for an agent had not been determined, the highest concentration tested was 10 microM.
# Cell Lines. The patient-derived cancer cell (PDC) lines: 156681-154-R-J1-PDC, 283228-195-R-J1-PDC, 287954-098-R-J1-PDC, 292921-168-R-J2-PDC, 349418-098-R-PDC, 425362-245-T-J1-PDC, 556581-035-R-J1-PDC, and BL0293-F563-PDC were received from the NCI Patient-Derived Models Repository (PDMR, https://pdmr.cancer.gov). The established cell lines HS-SY-2 (RRID:CVCL_8719), MPNST, and SYO-1 (RRID:CVCL_7146) were obtained from the Sloan Kettering Institute. The alveolar soft parts sarcoma cell line ASPS-1 (RRID:CVCL_S738) was established at the NCI and grown from internal seed stocks. The following established cell lines were purchased from the American Type Culture Collection (ATCC, Manassas, VA): G-401 (ATCC, cat. CRL-1441, RRID:CVCL_0270), SW982 (ATCC, cat. HTB-93, RRID:CVCL_1734), VA-ES-BJ (ATCC, cat. CRL-2138, RRID:CVCL_1785), NCI-H719 (ATCC, cat. CRL-5837, RRID:CVCL_1582), NCI-H196 (ATCC, cat. CRL-5823, RRID:CVCL_1509), NCI-H841 (ATCC, cat. CRL-5845, RRID:CVCL_1595), NCI-H1618 (ATCC, cat. CRL-5879, RRID:CVCL_1480), NCI-H1876 (ATCC, cat. CRL-5902, RRID:CVCL_1503), DMS 114 (ATCC, cat. CRL-2066; RRID:CVCL_1174), NCI-H211 (ATCC, cat. CRL-5824; RRID:CVCL_1529), and SW 1271 (ATCC, cat. CRL-2177, RRID:CVCL_1716). The small cell lung cancer cell line COR-L88 was purchased from Sigma-Aldrich (cat. 92031917-1VL, RRID:CVCL_1141). The non-small cell lung cancer cell lines NCI-H226 (RRID:CVCL_1544) and NCI-H322M (RRID:CVCL_1557) were established at the NCI and grown from internal seed stocks. Pooled donor human umbilical vein endothelial cells (HUVEC, Lonza, cat. CC-2519) and human mesenchymal stem cells (hMSC, Lonza, cat. PT-2501) were purchased from Lonza (Walkersville, MD).
# Cell Culture. All cells were maintained in an incubator at 37 degrees C and 5% CO2 with 95% humidity. […]
compound,measurement,setting,value
[2H]c1nc(C)nc([2H])c1-c1cc(NC[C@@H](C)c2cccc3c(C(=O)NC)ccnc23)ncn1 + CC[C@@]1(O)C(=O)OCc2c1cc1n(c2=O)Cc2cc3c(CN(C)C)c(O)ccc3nc2-1,IC50,second compound 0.003 µM,> 10 µM
same,IC50,second compound 0.00949 µM,> 10 µM
same,IC50,second compound 0.03 µM,> 10 µM
same,IC50,second compound 0.0949 µM,> 10 µM
same,IC50,second compound 0.3 µM,> 10 µM
same,"viability, T/C","second compound 0.003 µM, first compound 0.0316 µM",90.1%
same,"viability, T/C","second compound 0.003 µM, first compound 0.1 µM",97.5%
same,"viability, T/C","second compound 0.003 µM, first compound 0.316 µM",103%
same,"viability, T/C","second compound 0.003 µM, first compound 1 µM",104%
same,"viability, T/C","second compound 0.003 µM, first compound 3.16 µM",101%
same,"viability, T/C","second compound 0.003 µM, first compound 10 µM",101%
same,"viability, T/C","second compound 0.00949 µM, first compound 0.0316 µM",89.1%
same,"viability, T/C","second compound 0.00949 µM, first compound 0.1 µM",89.4%
same,"viability, T/C","second compound 0.00949 µM, first compound 0.316 µM",89.2%
same,"viability, T/C","second compound 0.00949 µM, first compound 1 µM",95.2%
same,"viability, T/C","second compound 0.00949 µM, first compound 3.16 µM",82.1%
same,"viability, T/C","second compound 0.00949 µM, first compound 10 µM",78%
same,"viability, T/C","second compound 0.03 µM, first compound 0.0316 µM",77.4%
same,"viability, T/C","second compound 0.03 µM, first compound 0.1 µM",78%
same,"viability, T/C","second compound 0.03 µM, first compound 0.316 µM",83.7%
same,"viability, T/C","second compound 0.03 µM, first compound 1 µM",84.8%
same,"viability, T/C","second compound 0.03 µM, first compound 3.16 µM",95.4%
same,"viability, T/C","second compound 0.03 µM, first compound 10 µM",81.8%
same,"viability, T/C","second compound 0.0949 µM, first compound 0.0316 µM",69.7%
same,"viability, T/C","second compound 0.0949 µM, first compound 0.1 µM",72.5%
same,"viability, T/C","second compound 0.0949 µM, first compound 0.316 µM",76.5%
same,"viability, T/C","second compound 0.0949 µM, first compound 1 µM",70.9%
same,"viability, T/C","second compound 0.0949 µM, first compound 3.16 µM",84.5%
same,"viability, T/C","second compound 0.0949 µM, first compound 10 µM",73.5%
same,"viability, T/C","second compound 0.3 µM, first compound 0.0316 µM",58.2%
same,"viability, T/C","second compound 0.3 µM, first compound 0.1 µM",55.4%
same,"viability, T/C","second compound 0.3 µM, first compound 0.316 µM",54.3%
same,"viability, T/C","second compound 0.3 µM, first compound 1 µM",62.5%
same,"viability, T/C","second compound 0.3 µM, first compound 3.16 µM",45.1%
same,"viability, T/C","second compound 0.3 µM, first compound 10 µM",52.1%
